Results on 28 molecules are retold here after US20090105217A1, “2-PHENYL-5-AMINO-1,3,4-OXADIAZOLES AND THEIR USE AS NICOTINIC ACETYLCHOLINE RECEPTOR LIGANDS” (priority 2007, published 2009).

This assay addresses T1, human α7 nAChR (Homo sapiens, UniProt P36544).
T1 construct: host or cells: GH4C1 cells (pituitary tumor, immortalized cell line)
The assay can be described thus: α7 nAChR FLIPR (Fluorometric Imaging Plate Reader) Ca2+ assay, agonist EC50. The following applies: GH4C1 cells stably transfected with human α7 nAChR; Fluo-4 Ca2+ fluorescence; Examples 194 to 205 tested as the HCl salt; read-out: pEC50 value (negative logarithm of the agonist EC50) (converted). It counts as cell-based. How it is done:
α7 nAChR FLIPR® (Fluorometric Imaging Plate Reader) Assay
Function of the heterologous expressed α7 nAChR was assessed by a FLIPR-Ca^2+ assay. Since nAChRs are non-selective cation channels with high permeability to Ca^2+, these studies were carried out by measuring changes of intracellular Ca^2+ concentration using the Ca^2+-chelating fluorescent dye Fluo-4 and FLIPR® (Fluorometric Imaging Plate Reader) technology.
GH4C1cells (pituitary tumor, immortalized cell line) stably transfected with human α7 nAChR (Biocat ID 96986), were thawed, suspended in growth medium (Ham's Nutrient Mixture F10—Ham's F10, Invitrogen 31550-023, 15% Horse Serum heat inactivated—Invitrogen 26050-047, 2.5% Foetal Bovine Serum—FBS, Gibco 10500-064, 200 μg/ml Hygromycin B—Invitrogen, 10687-010, 10 mg/L Phenol Red—Sigma, P 0290, 1 mM Glutamine—Invitrogen, 25030-024) and plated in 500 cm^2 Triple Flask.
Cells were then incubated at 30° C., 5% CO2 for 72 hours.
On the day of the experiment, cells were washed twice with Assay Buffer (AB) (145 mM NaCl, 5 mM KCl, 1 mM MgCl2, 2 mM CaCl2, 20 mM HEPES, 5.5 mM Glucose pH=7.3) containing 2.5 mM Probenecid. Changes in the intracellular Ca^2+ content of stably transfected cells were measured using the Ca^2+ chelating dye Fluo-4 (Tef Labs 0152) in conjunction with a FLIPR® (Molecular Devices). The cell permeant dye Fluo-4 was prepared to a concentration of 1 mM in 100% DMSO and 10% Pluronic acid. The dye was then diluted with AB to a final concentration of 2 μM and placed on the cells. After 45-60 minutes dye loading incubation at 37° C., the unincorporated dye was removed from the cells by washing (80 μL, 3 times) with AB, and a final volume of 30 μL/well of AB was left in each well.
Plates containing test compounds (dissolved in 100% DMSO at 2 mM and serially diluted with DMSO) were copied into “daughter” plates (1 μL/well dispensation). Just prior to starting the assay, the “daughter” plate was diluted with 50 μL/well of AB.
The plates were then placed in the FLIPR®, and cell fluorescence was determined before drug addition (30 seconds) and monitored (excitation 488 nm, emission 510-580 nm) immediately following exposure to compounds. Maximum fluorescence values were recorded and fitted for agonist EC50 calculations.
The results are expressed as pEC50 values. A pEC50 is the negative logarithm of the agonist EC50 calculation as determined in the α7 nAChR FLIPR® assay. […] Variations in pEC50 may arise between tests.

T1 sequence (P36544 23-502): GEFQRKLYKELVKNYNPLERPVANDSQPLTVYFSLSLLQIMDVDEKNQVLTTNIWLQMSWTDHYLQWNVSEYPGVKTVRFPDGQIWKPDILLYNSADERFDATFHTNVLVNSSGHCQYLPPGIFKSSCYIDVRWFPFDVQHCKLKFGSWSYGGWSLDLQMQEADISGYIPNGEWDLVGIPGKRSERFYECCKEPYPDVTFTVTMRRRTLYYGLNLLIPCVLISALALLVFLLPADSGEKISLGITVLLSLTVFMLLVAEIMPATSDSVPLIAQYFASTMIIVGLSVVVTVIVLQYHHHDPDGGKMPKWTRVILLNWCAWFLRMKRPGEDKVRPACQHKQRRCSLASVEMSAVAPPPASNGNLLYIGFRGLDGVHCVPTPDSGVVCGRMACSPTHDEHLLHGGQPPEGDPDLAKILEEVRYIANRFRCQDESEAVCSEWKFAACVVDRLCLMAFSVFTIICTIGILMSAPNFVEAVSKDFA

Broadly, the EC50 is the concentration at which the effect is half-maximal. With `O=C(Nc1ccc(-c2nnc(NCCCCN3CCCC3)o2)c(C(F)(F)F)c1)C1CCCCC1` [Example 64, N-[4-(5-{[4-(1-pyrrolidinyl)butyl]amino}-1,3,4-oxadiazol-2-yl)-3-(trifiuoromethyl)phenyl]cyclohexanecarboxamide], the EC50 is no more than 1000 nM. Turning to `O=C(Nc1ccc(-c2nnc(NCCCCN3CCOCC3)o2)c(C(F)(F)F)c1)C1CCCCC1` [Example 66, N-[4-(5-{[4-(4-morpholinyl)butyl]amino}-1,3,4-oxadiazol-2-yl)-3-(trifluoromethyl)phenyl]cyclohexanecarboxamide], the EC50 was no more than 1000 nM. In the case of `CCN(CC)CCCNc1nnc(-c2ccc(NC(=O)C3CCCCC3)cc2C(F)(F)F)o1` [Example 67, N-[4-(5-{[3-(diethylamino)propyl]amino}-1,3,4-oxadiazol-2-yl)-3-(trifluoromethyl)phenyl]cyclohexanecarboxamide], the EC50 is no more than 1000 nM.

For the molecule `CCN(CC)CCCCNc1nnc(-c2ccc(NC(=O)C3CCCCC3)cc2C(F)(F)F)o1` [Example 68, N-[4-(5-{[4-(diethylamino)butyl]amino}-1,3,4-oxadiazol-2-yl)-3-(trifluoromethyl)phenyl]cyclohexanecarboxamide], the EC50 was no more than 1000 nM. Take `O=C(Nc1ccc(-c2nnc(NCCCN3CCCC3)o2)cc1)c1ccccc1` [Example 69, N-[4-(5-{[3-(1-pyrrolidinyl)propyl]amino}-1,3,4-oxadiazol-2-yl)phenyl]benzamide]: the EC50 was no more than 1000 nM. Regarding `COc1cc(NC(=O)c2ccccc2)ccc1-c1nnc(NCCCN2CCCC2)o1` [Example 70, N-[3-(methyloxy)-4-(5-{[3-(1-pyrrolidinyl)propyl]amino}-1,3,4-oxadiazol-2-yl)phenyl]benzamide], the EC50 is no more than 1000 nM.

With `COc1cc(NC(=O)c2ccccc2)ccc1-c1nnc(NCCCN2CCCCC2)o1` [Example 71, N-[3-(methyloxy)-4-(5-{[3-(1-piperidinyl)propyl]amino}-1,3,4-oxadiazol-2-yl)phenyl]benzamide], the EC50 is no more than 100 nM. In the case of `COc1cc(NC(=O)c2ccccc2)ccc1-c1nnc(NCCCN2CCOCC2)o1` [Example 72, N-[3-(methyloxy)-4-(5-{[3-(4-morpholinyl)propyl]amino}-1,3,4-oxadiazol-2-yl)phenyl]benzamide], the EC50 was no more than 1000 nM. In the case of `COc1cc(NC(=O)c2ccccc2)ccc1-c1nnc(NCCCCN2CCOCC2)o1` [Example 73, N-[3-(methyloxy)-4-(5-{[4-(4-morpholinyl)butyl]amino}-1,3,4-oxadiazol-2-yl)phenyl]benzamide], the EC50 was no more than 100 nM. Regarding `CCN(CC)CCCNc1nnc(-c2ccc(NC(=O)c3ccccc3)cc2OC)o1` [Example 74, N-[4-(5-{[3-(diethylamino)propyl]amino}-1,3,4-oxadiazol-2-yl)-3-(methyloxy)phenyl]benzamide], the EC50 is no more than 1000 nM. In the case of `CCN(CC)CCCCNc1nnc(-c2ccc(NC(=O)c3ccccc3)cc2OC)o1` [Example 75, N-[4-(5-{[4-(diethylamino)butyl]amino}-1,3,4-oxadiazol-2-yl)-3-(methyloxy)phenyl]benzamide] it was no more than 100 nM. As to `COc1cc(NC(=O)c2ccccc2)ccc1-c1nnc(NCCCCN2CCCC2)o1` [Example 76, N-[3-(methyloxy)-4-(5-{[4-(1-pyrrolidinyl)butyl]amino}-1,3,4-oxadiazol-2-yl)phenyl]benzamide], the half-maximal effective concentration (EC50) was no more than 100 nM. As to `COc1cc(NC(=O)C2CCCCC2)ccc1-c1nnc(NCCCN2CCCC2)o1` [Example 77, N-[3-(methyloxy)-4-(5-{[3-(1-pyrrolidinyl)propyl]amino}-1,3,4-oxadiazol-2-yl)phenyl]cyclohexanecarboxamide], the EC50 was no more than 1000 nM. `COc1cc(NC(=O)C2CCCCC2)ccc1-c1nnc(NCCCCN2CCCC2)o1` [Example 78, N-[3-(methyloxy)-4-(5-{[4-(1-pyrrolidinyl)butyl]amino}-1,3,4-oxadiazol-2-yl)phenyl]cyclohexanecarboxamide]: the EC50 was no more than 100 nM. For `COc1cc(NC(=O)C2CCCCC2)ccc1-c1nnc(NCCCN2CCOCC2)o1` [Example 79, N-[3-(methyloxy)-4-(5-{[3-(4-morpholinyl)propyl]amino}-1,3,4-oxadiazol-2-yl)phenyl]cyclohexanecarboxamide], the EC50 was no more than 1000 nM. `COc1cc(NC(=O)C2CCCCC2)ccc1-c1nnc(NCCCCN2CCOCC2)o1` [Example 80, N-[3-(methyloxy)-4-(5-{[4-(4-morpholinyl)butyl]amino}-1,3,4-oxadiazol-2-yl)phenyl]cyclohexanecarboxamide]: the EC50 was no more than 1000 nM. Next, `CCN(CC)CCCNc1nnc(-c2ccc(NC(=O)C3CCCCC3)cc2OC)o1` [Example 81, N-[4-(5-{[3-(diethylamino)propyl]amino}-1,3,4-oxadiazol-2-yl)-3-(methyloxy)phenyl]cyclohexanecarboxamide]: no more than 1000 nM.

Take `CCN(CC)CCCCNc1nnc(-c2ccc(NC(=O)C3CCCCC3)cc2OC)o1` [Example 82, N-[4-(5-{[4-(diethylamino)butyl]amino}-1,3,4-oxadiazol-2-yl)-3-(methyloxy)phenyl]cyclohexanecarboxamide]: the EC50 was no more than 1000 nM.

With `COc1cc(NC(=O)C2CCCCC2)ccc1-c1nnc(NCCCCN2CCCCC2)o1` [Example 83, N-[3-(methyloxy)-4-(5-{[4-(1-piperidinyl)butyl]amino}-1,3,4-oxadiazol-2-yl)phenyl]cyclohexanecarboxamide], the EC50 was no more than 100 nM.

Take `O=C(Nc1ccc(-c2nnc(NCCCN3CCCC3)o2)c(C(F)(F)F)c1)c1ccccc1F` [Example 84, 2-fluoro-N-[4-(5-{[3-(1-pyrrolidinyl)propyl]amino}-1,3,4-oxadiazol-2-yl)-3-(trifluoromethyl)phenyl]benzamide]: the EC50 was no more than 1000 nM.

Consider `O=C(Nc1ccc(-c2nnc(NCCCCN3CCCC3)o2)c(C(F)(F)F)c1)c1ccccc1F` [Example 85, 2-fluoro-N-[4-(5-{[4-(1-pyrrolidinyl)butyl]amino}-1,3,4-oxadiazol-2-yl)-3-(trifluoromethyl)phenyl]benzamide], for which the EC50 is no more than 100 nM. In the case of `O=C(Nc1ccc(-c2nnc(NCCCN3CCOCC3)o2)c(C(F)(F)F)c1)c1ccccc1F` [Example 86, 2-fluoro-N-[4-(5-{[3-(4-morpholinyl)propyl]amino}-1,3,4-oxadiazol-2-yl)-3-(trifluoromethyl)phenyl]benzamide] it was no more than 1000 nM; in that of `O=C(Nc1ccc(-c2nnc(NCCCCN3CCOCC3)o2)c(C(F)(F)F)c1)c1ccccc1F` [Example 87, 2-fluoro-N-[4-(5-{[4-(4-morpholinyl)butyl]amino}-1,3,4-oxadiazol-2-yl)-3-(trifluoromethyl)phenyl]benzamide], no more than 1000 nM; in that of `CCN(CC)CCCNc1nnc(-c2ccc(NC(=O)c3ccccc3F)cc2C(F)(F)F)o1` [Example 88, N-[4-(5-{[3-(diethylamino)propyl]amino}-1,3,4-oxadiazol-2-yl)-3-(trifluoromethyl)phenyl]-2-fluorobenzamide], no more than 1000 nM. For `CCN(CC)CCCCNc1nnc(-c2ccc(NC(=O)c3ccccc3F)cc2C(F)(F)F)o1` [Example 89, N-[4-(5-{[4-(diethylamino)butyl]amino}-1,3,4-oxadiazol-2-yl)-3-(trifluoromethyl)phenyl]-2-fluorobenzamide], the EC50 is no more than 100 nM. Regarding `O=C(Nc1ccc(-c2nnc(NCCCCN3CCCCC3)o2)c(C(F)(F)F)c1)c1ccccc1F` [Example 90, 2-fluoro-N-[4-(5-{[4-(1-piperidinyl)butyl]amino]-1,3,4-oxadiazol-2-yl)-3-(trifluoromethyl)phenyl]benzamide], the EC50 was no more than 100 nM. With `O=C(Nc1ccc(-c2nnc(NCCCN3CCCC3)o2)c(C(F)(F)F)c1)c1ccccc1` [Example 91, N-[4-(5-{[3-(1-pyrrolidinyl)propyl]amino}-1,3,4-oxadiazol-2-yl)-3-(trifluoromethyl)phenyl]benzamide], the EC50 was no more than 1000 nM. `O=C(Nc1ccc(-c2nnc(NCCCCN3CCCC3)o2)c(C(F)(F)F)c1)c1ccccc1` [Example 92, N-[4-(5-{[4-(1-pyrrolidinyl)butyl]amino}-1,3,4-oxadiazol-2-yl)-3-(trifluoromethyl)phenyl]benzamide]: the EC50 was no more than 100 nM.
